In paper PMC9120478 (Nature Communications, 2022):
Positions count from the first letter of the chain named.

Columns and labels:
[1] = target: T1, wild-type mouse TRPV3 (Mus musculus, UniProt Q8K424); experiment: Fura-2 ratiometric Ca2+ uptake, inhibition of 2-APB-evoked response; type: cell-based
T1 construct: expressed in transfected cells; host or cells: HEK 293 S GnTI- cells (baculovirus transduction)
T1 sequence (Q8K424 1-791): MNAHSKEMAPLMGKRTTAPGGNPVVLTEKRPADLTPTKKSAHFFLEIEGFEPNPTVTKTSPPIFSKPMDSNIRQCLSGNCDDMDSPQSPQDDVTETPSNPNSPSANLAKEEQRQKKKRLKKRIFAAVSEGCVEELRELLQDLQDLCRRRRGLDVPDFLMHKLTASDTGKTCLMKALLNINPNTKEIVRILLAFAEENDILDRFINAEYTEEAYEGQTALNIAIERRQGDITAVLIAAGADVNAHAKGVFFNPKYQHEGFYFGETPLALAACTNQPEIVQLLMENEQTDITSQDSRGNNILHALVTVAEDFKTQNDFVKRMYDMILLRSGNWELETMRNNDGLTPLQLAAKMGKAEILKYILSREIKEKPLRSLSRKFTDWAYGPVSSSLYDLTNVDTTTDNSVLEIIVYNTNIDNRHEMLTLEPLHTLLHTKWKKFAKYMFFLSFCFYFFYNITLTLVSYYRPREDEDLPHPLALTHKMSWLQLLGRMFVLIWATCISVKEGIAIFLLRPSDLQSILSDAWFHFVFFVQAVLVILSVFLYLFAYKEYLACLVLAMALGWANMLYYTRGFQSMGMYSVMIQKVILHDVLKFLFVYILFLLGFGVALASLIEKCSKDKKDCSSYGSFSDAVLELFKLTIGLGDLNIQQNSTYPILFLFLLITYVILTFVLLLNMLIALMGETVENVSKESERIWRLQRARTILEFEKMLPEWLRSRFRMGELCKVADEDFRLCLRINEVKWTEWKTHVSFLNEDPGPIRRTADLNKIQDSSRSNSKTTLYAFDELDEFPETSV
Experimental: (§1) GFP-free C-terminally strep-tagged wild-type TRPV3, TRPV3-Y564A, TRPV3-Y594A, TRPV3-F633A, TRPV3-I663W, and TRPV3-F666A were expressed in HEK 293 S GnTI^− cells as previously described[41],[42],[53]. In short, 48 h after transduction, 1-ml aliquots of cell suspension were collected by centrifugation at 550 g for 5 min using an Eppendorf 5424 centrifuge. The cells were resuspended in the pre-warmed modified HEPES-buffered saline (HBS) containing 118 mM NaCl, 4.8 mM KCl, 1 mM MgCl2, 5 mM D-glucose, and 10 mM HEPES pH 7.4 and 5 μg/ml Fura-2 AM (Thermo Fisher Scientific) and incubated for 45 min at 37 °C. The Fura-2-loaded cells were then centrifuged for 5 min at 550 g, resuspended in the pre-warmed, modified HBS and incubated again for 30 min at 37 °C in the dark. The cells were subsequently pelleted and washed twice in the modified HBS. The washed cell pellets were kept on ice in the dark before taking an aliquot for fluorescence measurements. […] We used the lower CaCl2 concentration than before[42],[28] (2.5 mM) to minimize non-specific effects, which often appeared as a drift in the Fura-2 signal at high Ca^2+ concentration, presumably due to cell death as a result of calcium overload. Fluorescence measurements were conducted using a QuantaMaster 40 spectrofluorometer (Photon Technology International) at room temperature in a quartz cuvette under constant stirring. After 60 s since the beginning, the recording was paused and 2-APB was added. After the addition of 2-APB, the recording was continued for the additional 140 s. Changes in intracellular Ca^2+ were measured by taking the ratio of fluorescence emitted at 510 nm at the excitation wavelength of 340 nm and 380 nm. […] The data were processed using Origin 9.0 (OriginLab) software.

[2] = target: T2, F666A mutant TRPV3 (Mus musculus, UniProt Q8K424, F666A); experiment: as above; type: cell-based; conditions: n = 3
T2 construct: expressed in transfected cells; host or cells: HEK 293 S GnTI- cells (baculovirus transduction)
T2 sequence (Q8K424 1-791 F666A): T1 sequence (Q8K424 1-791) with F666A
Experimental: as §1

With `CCCCOc1ccc(C(=O)CCN2CCCCC2)cc1` [dyclonine, 1-(4-butoxyphenyl)-3-piperidin-1-ylpropan-1-one] as the compound, how does the “nHill of inhibition curve” value ([1]; logistic fit, 200 µM 2-APB, n = 7) read?
The value was 1.61 ± 0.27.

And the IC50 ([1]; read-out: IC50, inhibition of TRPV3-mediated Ca2+ uptake)?
The IC50 was 29.8 ± 5.3 µM.

What about the IC50 ([2]; HEK 293 GnTI- cells, 200 µM 2-APB after pre-incubation with inhibitor) of the same compound?
The IC50 was 673 ± 37 µM.

And the “nHill of inhibition curve, F666A” value ([2]; logistic fit)?
The value was 2.07 ± 0.08.
